Test results taken from patent US11091482B2, “Isoxazolyl-carbonyloxy azabicyclo[3.2.1]octanyl compounds as FXR activators” (ARDELYX, INC., priority 2016, dated 2021).

How the values were obtained:
[1] = biological target: ligand binding domain of human FXR (Homo sapiens (Human), UniProt Q96RI1); assay: FXR ligand binding assay (LanthaScreen FRET); conditions: for EC50 / FXR pEC50 / % Efficacy: FXR ligand binding assay; for EC50 / FXR pEC50: -log EC50; for EC50: read-out: FXR pEC50 (converted); for Emax: read-out: % Efficacy; for % Efficacy: extent of activation relative to GW4064;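 on all read-outs here: TR-FRET coactivator recruitment: ligand-induced binding of fluorescein-labelled SRC2-2 peptide to GST-tagged FXR LBD detected via Tb anti-GST antibody, serial compound dilutions, 3-parameter logistic fit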
Method: The affinity of FXR ligands for the ligand binding domain of FXR was determined using a commercially available human FXR ligand binding assay (LanthaScreen, Thermofisher Cat #PV4833). […] Binding of FXR ligands to the FXR ligand binding domain promotes binding of the fluorescein-labelled SRC2-2 peptide. This causes a FRET signal between the terbium-labelled anti-GST antibody and the fluorescein-labelled SRC peptide which are both bound to the FXR ligand binding domain.
Test compounds are dissolved in DMSO and a 3-fold serial dilution series is generated, then further diluted into assay buffer. The compounds are mixed with 5 nM GST-tagged FXR ligand binding domain, 5 nM Tb-labelled anti-GST antibody and 500 nM fluorcscein-labelled SRC2-2 peptide in a pH 7.4 buffer. The reaction is incubated at room temperature for 1 hour, then the FRET signal is measured as the ratio of the 520 nm/495 nm emission following excitation at 340 nm. The change in FRET signal is plotted against the test article concentration and fit to a 3-parameter logistical equation.

[2] = biological target: human Farnesoid X receptor ligand-binding domain/Gal4 DNA binding domain chimera (Homo sapiens (Human), UniProt Q96RI1); assay: Cell-based FXR beta-lactamase reporter assay (FXR-UAS-bla HEK 293T cells); conditions: for Emax: HEK-293T, read-out: % Efficacy; for EC50 / FXR pEC50 / % Efficacy: cellular FXR beta-lactamase reporter assay; for EC50 / FXR pEC50: -log EC50; for EC50: read-out: FXR pEC50 (converted); for % Efficacy: extent of activation relative to GW4064
Method: FXR activation was measured using a cell line and procedure obtained from Life Technologies (Cat #K1691). FXR-UAS-bla HEK 293T cells contain a human Farnesoid X receptor ligand-binding domain/Gal4 DNA binding domain chimera stably integrated into the CellSensor® UAS-bla HEK 293T cell line. The CellSensor® UAS-bla HEK 293T contains a beta-lactamase reporter gene under control of a UAS response element stably integrated into HEK 293T cells. Activation of FXR by bound ligands results in transcriptional activation of the beta-lactamase reporter gene, which is detected via assay of beta-lactamase activity. Cells are harvested and diluted into assay medium containing phenol red-free DMEM supplemented with 2% Charcoal-stripped FBS, pyruvate, non-essential amino acids. Cells are then transferred to a 384 well assay plate. Test compounds are dissolved in DMSO and a 3-fold serial dilution series is generated, then further diluted into assay medium. […] A FRET-based […] is loaded into cells as its acetomethoxy ester. Intracellular esterases liberate free CCF4, a cephalosporin core linking 7-hydroxycoumarin to fluorescein. In the presence of beta-lactamase activity produced in the presence of FXR agonists, cleavage of CCF4 spatially separates the two dyes and disrupts FRET, so that exciting the coumarin at 409 nm now produces a blue fluorescence signal at 447 nm. The change in FRET signal is plotted against the test compound concentration and fit to a 3-parameter logistical equation.

ligand binding domain of human FXR, sequence (Q96RI1 262-486): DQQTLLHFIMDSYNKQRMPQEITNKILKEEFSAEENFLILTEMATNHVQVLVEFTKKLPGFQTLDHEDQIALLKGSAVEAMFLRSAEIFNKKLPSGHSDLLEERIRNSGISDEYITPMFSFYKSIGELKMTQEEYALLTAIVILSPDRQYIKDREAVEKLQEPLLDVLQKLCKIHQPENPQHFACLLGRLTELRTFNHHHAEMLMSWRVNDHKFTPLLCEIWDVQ
human Farnesoid X receptor ligand-binding domain/Gal4 DNA binding domain chimera, sequence (Q96RI1 262-486, stated change not applied): as the sequence (Q96RI1 262-486) above

Row | Structure (SMILES) | EC50 [1] [nM] | Emax [1] [%] | Emax [2] [%] | EC50 [2] [nM] | FXR pEC50 [1] | % Efficacy [1] [%] | FXR pEC50 [2] | % Efficacy [2] [%]
1 | COc1cc(C(=O)O)ccc1N1[C@@H]2CC[C@H]1C[C@@H](OC(=O)c1c(-c3c(Cl)cccc3Cl)noc1C1CC1)C2 [Compound I-40, 4-[(1R,3R,5S)-3-[5-cyclopropyl-3-(2,6-dichlorophenyl)-1,2-oxazole-4-carbonyloxy]-8-azabicyclo[3.2.1]octan-8-yl]-3-methoxybenzoic acid] | 63.1 | 103 | 117 | 39.8 | – | – | – | –
2 | O=C(O)c1cc(F)c2nc(N3[C@@H]4CC[C@H]3C[C@@H](OC(=O)c3c(C5CCC6(CC5)CC6)noc3C3CC3)C4)sc2c1 [Compound I-19, 2-[(1R,3R,5S)-3-(5-cyclopropyl-3-{spiro[2.5]octan-6-yl}-1,2-oxazole-4-carbonyloxy)-8-azabicyclo[3.2.1]octan-8-yl]-4-fluoro-1,3-benzothiazole-6-carboxylic Acid] | – | – | – | – | 7.2 | 55 | 6.8 | 79
3 | CC(C)S(=O)(=O)NC(=O)c1ccc(N2[C@@H]3CC[C@H]2C[C@@H](OC(=O)c2c(-c4c(Cl)cccc4Cl)noc2C2CC2)C3)cc1 [Compound I-47, (1R,3R,5S)-8-{4-[(propane-2-sulfonyl)carbamoyl]phenyl}-8-azabicyclo[3.2.1]octan-3-yl 5-cyclopropyl-3-(2,6-dichlorophenyl)-1,2-oxazole-4-carboxylate] | – | – | – | – | 7.8 | 168 | 8.5 | 124
4 | O=C(O)c1cc(OC(F)(F)F)c2nc(N3[C@@H]4CC[C@H]3C[C@@H](OC(=O)c3c(C56CCC(CC5)CC6)noc3C3CC3)C4)sc2c1 [Compound I-57, 2-[(1R,3R,5S)-3-(3-{bicyclo[2.2.2]octan-1-yl}-5-cyclopropyl-1,2-oxazole-4-carbonyloxy)-8-azabicyclo[3.2.1]octan-8-yl]-4-(trifluoromethoxy)-1,3-benzothiazole-6-carboxylic Acid] | – | 26 | 33 | 398 | – | – | – | –
5 | O=C(O)c1cc(F)c2nc(N3[C@@H]4CC[C@H]3C[C@@H](OC(=O)c3c(-c5c(Cl)cccc5Cl)noc3C3CCC3)C4)sc2c1 [Compound I-24, 2-[(1R,3R,5S)-3-[5-cyclobutyl-3-(2,6-dichlorophenyl)-1,2-oxazole-4-carbonyloxy]-8-azabicyclo[3.2.1]octan-8-yl]-4-fluoro-1,3-benzothiazole-6-carboxylic Acid] | – | – | – | – | 7.9 | 64 | 7.5 | 98
6 | COC12CCC(c3noc(C4CC4)c3C(=O)O[C@@H]3C[C@H]4CC[C@@H](C3)N4c3nc4c(OC(F)(F)F)cc(C(=O)O)cc4s3)(CC1)CC2 [Compound I-58, 2-[(1R,3S,5S)-3-(5-cyclopropyl-3-{4-methoxybicyclo[2.2.2]octan-1-yl}-1,2-oxazole-4-carbonyloxy)-8-azabicyclo[3.2.1]octan-8-yl]-4-(trifluoromethoxy)-1,3-benzothiazole-6-carboxylic Acid] | – | – | – | – | >4.4 | 22 | >4.5 | –
7 | CS(=O)(=O)NC(=O)c1ccc(N2[C@@H]3CC[C@H]2C[C@@H](OC(=O)c2c(-c4c(Cl)cccc4Cl)noc2C2CC2)C3)c(Cl)c1 [Compound I-52, (1R,3R,5S)-8-[2-chloro-4-(methanesulfonylcarbamoyl)phenyl]-8-azabicyclo[3.2.1]octan-3-yl 5-cyclopropyl-3-(2,6-dichlorophenyl)-1,2-oxazole-4-carboxylate] | – | 110 | 109 | 15.8 | – | – | – | –
8 | Cc1cc(C(=O)O)cc2sc(N3[C@@H]4CC[C@H]3C[C@@H](OC(=O)c3c(-c5ccccc5C(F)(F)F)noc3C3CC3)C4)nc12 [Compound I-61, 2-[(1R,3R,5S)-3-{5-cyclopropyl-3-[2-(trifluoromethyl)phenyl]-1,2-oxazole-4-carbonyloxy}-8-azabicyclo[3.2.1]octan-8-yl]-4-methyl-1,3-benzothiazole-6-carboxylic Acid] | – | 139 | 102 | 10 | 7.1 | – | – | –
9 | O=C(NS(=O)(=O)C1CC1)c1ccc(N2[C@@H]3CC[C@H]2C[C@H](OC(=O)c2c(-c4c(Cl)cccc4Cl)noc2C2CC2)C3)cc1 [Compound I-48, (1R,3S,5S)-8-{4-[(cyclopropanesulfonyl)carbamoyl]phenyl}-8-azabicyclo[3.2.1]octan-3-yl 5-cyclopropyl-3-(2,6-dichlorophenyl)-1,2-oxazole-4-carboxylate] | – | – | – | – | 8.2 | 124 | 8.6 | 130
10 | O=C(O)c1ccc(N2[C@@H]3CC[C@H]2C[C@@H](OC(=O)c2c(-c4c(Cl)cccc4OC(F)F)noc2C2CC2)C3)c(F)c1 [Compound I-43, 4-[(1R,3R,5S)-3-{3-[2-chloro-6-(difluoromethoxy)phenyl]-5-cyclopropyl-1,2-oxazole-4-carbonyloxy}-8-azabicyclo[3.2.1]octan-8-yl]-3-fluorobenzoic Acid] | 50.1 | 72 | 108 | 39.8 | – | – | – | –
11 | O=C(O)c1cc(F)c2nc(N3[C@@H]4CC[C@H]3C[C@@H](OC(=O)c3c(-c5ccccc5)noc3C3CC3)C4)sc2c1 [Compound I-13, 2-[(1R,3R,5S)-3-(5-Cyclopropyl-3-phenyl-1,2-oxazole-4-carbonyloxy)-8-azabicyclo[3.2.1]octan-8-yl]-4-fluoro-1,3-benzothiazole-6-carboxylic Acid] | – | – | – | – | 6.7 | 40 | 6 | 93
12 | O=C(O)c1ccc(N2[C@@H]3CC[C@H]2C[C@@H](OC(=O)c2c(-c4c(Cl)cccc4Cl)noc2C2CC2)C3)c(C(F)(F)F)c1 [Compound I-38, 4-[(1R,3R,5S)-3-[5-cyclopropyl-3-(2,6-dichlorophenyl)-1,2-oxazole-4-carbonyloxy]-8-azabicyclo[3.2.1]octan-8-yl]-3-(trifluoromethyl)benzoic acid] | – | 80 | 112 | 79.4 | 6.6 | – | – | –
13 | COc1cc(C(=O)O)cc2sc(N3[C@@H]4CC[C@H]3C[C@@H](OC(=O)c3c(C56CCC(CC5)CC6)noc3C3CC3)C4)nc12 [Compound I-21, 2-[(1R,3R,5S)-3-(3-{bicyclo[2.2.2]octan-1-yl}-5-cyclopropyl-1,2-oxazole-4-carbonyloxy)-8-azabicyclo[3.2.1]octan-8-yl]-4-methoxy-1,3-benzothiazole-6-carboxylic Acid] | – | – | 44 | – | – | – | – | –
14 | Cn1c(N2[C@@H]3CC[C@H]2C[C@@H](OC(=O)Cc2c(-c4c(Cl)cccc4Cl)noc2C2CC2)C3)nc2c(F)cc(C(=O)O)cc21 [Compound I-33, 2-[(1R,3R,5S)-3-({2-[5-cyclopropyl-3-(2,6-dichlorophenyl)-1,2-oxazol-4-yl]acetyl}oxy)-8-azabicyclo[3.2.1]octan-8-yl]-4-fluoro-1-methyl-1H-1,3-benzodiazole-6-carboxylic Acid] | – | – | 72 | – | – | – | – | –
15 | COc1cc2nc(N3[C@@H]4CC[C@H]3C[C@@H](OC(=O)c3c(C56CCC(CC5)CC6)noc3C3CC3)C4)sc2cc1C(=O)O [Compound I-22, 2-[(1R,3R,5S)-3-(3-{bicyclo[2.2.2]octan-1-yl}-5-cyclopropyl-1,2-oxazole-4-carbonyloxy)-8-azabicyclo[3.2.1]octan-8-yl]-5-methoxy-1,3-benzothiazole-6-carboxylic Acid] | – | – | 44 | 398 | – | – | – | –
16 | O=C(O)c1cccc(S(=O)(=O)N2[C@@H]3CC[C@H]2C[C@@H](OC(=O)c2c(-c4c(Cl)cccc4Cl)noc2C2CC2)C3)c1 [Compound I-55, 3-{[(1R,3R,5S)-3-[5-cyclopropyl-3-(2,6-dichlorophenyl)-1,2-oxazole-4-carbonyloxy]-8-azabicyclo[3.2.1]octan-8-yl]sulfonyl}benzoic Acid] | – | – | 96 | 1000 | – | – | – | –
17 | O=C(NS(=O)(=O)CCCO)c1ccc(N2[C@@H]3CC[C@H]2C[C@@H](OC(=O)c2c(-c4c(Cl)cccc4Cl)noc2C2CC2)C3)cc1 [Compound I-50, (1R,3R,5S)-8-{4-[(3-hydroxypropanesulfonyl)carbamoyl]phenyl}-8-azabicyclo[3.2.1]octan-3-yl 5-cyclopropyl-3-(2,6-dichlorophenyl)-1,2-oxazole-4-carboxylate] | – | – | 102 | 158 | – | – | – | –
18 | NC(=O)c1cc(F)c2nc(N3[C@@H]4CC[C@H]3C[C@@H](OC(=O)c3c(-c5c(Cl)cccc5Cl)noc3C3CC3)C4)sc2c1 [Compound I-3, (1R,3R,5S)-8-(6-carbamoyl-4-fluoro-1,3-benzothiazol-2-yl)-8-azabicyclo[3.2.1]octan-3-yl 5-cyclopropyl-3-(2,6-dichlorophenyl)-1,2-oxazole-4-carboxylate] | – | 60 | – | – | – | – | – | –
